Laboratory results: ChEMBL document CHEMBL1201862, “PubChem BioAssay data set” (2004)
Calls of active or inactive are those of the source.

How the values were obtained:
Steroidogenic factor 1 = Steroidogenic factor 1 (Homo sapiens, UniProt Q13285); assay: Counterscreen for inverse agonists of the liver receptor homolog-1 (LRH-1; NR5A2): Luminescence-based cell-based high throughput dose response assay to identify inverse agonists of the Steroidogenic Factor 1 Nuclear Receptor (SF1; NR5A1).; type: functional
[1] = StAR promoter reporter inhibition counter-screen, dose response, counter-screen for LRH-1 inverse agonist project, cell-based, luminescence, luciferase reporter (AID 651969); type: functional
[2] = biological target: Nuclear receptor subfamily 5 group A member 2 (Homo sapiens, UniProt O00482); type: functional, cell-based;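 further: HEK293T cells transfected with LRH-1 and a StAR promoter luciferase reporter; potency for inhibitors that lower LRH-1 driven reporter light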
Protein Wnt-3a = Protein Wnt-3a (Mus musculus, UniProt P27467); assay: Wnt3a-driven reporter signaling inhibition, dose response, selectivity assay for Gli-SUFU antagonist project, Wnt-LIGHT cells, luminescence (AID 651570); type: functional; conditions: read-out: IC50_Mean;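 further: Wnt-LIGHT reporter cells stimulated with conditioned medium from Wnt3a-producing cells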
[3] = cytotoxicity in HEK-293T cells, dose response, cytotoxicity control for TCR NF-kB inhibitor project, luminescence, T-cell screen hits (AID 489026); type: functional, cell-based;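 further: cells exposed to compound about 14 hours before the viability readout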
INS1 = assay: beta cell apoptosis inhibitors, cytokine rescue, dose response, luminescence, retest (AID 449756); type: functional, cell-based; conditions: Rattus norvegicus;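 further: cell death triggered by IL-1 beta plus TNF-alpha plus IFN-gamma mixture; protective hits raise ATP signal compared with cytokine alone wells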
[4] = AlphaScreen signal interference compounds, dose response, artefact control for ARNT-TACC3 interaction inhibitor project, biochemical, luminescence, cherry-pick (AID 651705); type: functional;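 further: AlphaScreen bead proximity signal that flags compounds interfering with the detection technology; potency reflects signal decrease which marks the compound as an assay artifact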
[5] = HepG2 cell cytotoxicity, dose response, cytotoxicity control for non-replicating M. tuberculosis project (AID 489018); type: functional; conditions: Mycobacterium tuberculosis
[6] = THP-1 cell cytotoxicity, dose response, cytotoxicity control for non-replicating M. tuberculosis project (AID 489025); type: functional
[7] = Vero E6 cell cytotoxicity, dose response, cytotoxicity control for non-replicating M. tuberculosis project, secondary assay (AID 492998); type: functional, VeroE6; conditions: Vero C1008
cells = type: functional
Nonstructural protein 1 = Nonstructural protein 1 (Influenza A virus, UniProt Q194T2); type: functional, Influenza A virus (A/California/07/2009(H1N1))
H9c2 = assay: cells; type: functional, cell-based; conditions: Rattus norvegicus, H9c2, Myocardium;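 further: confirmatory concentration-response retest of ultra-high-throughput screening hits for modulation of myocardial damage; cell death induced by hydrogen peroxide oxidative stress; compound pretreatment for 60 min then peroxide exposure for 2 h; potency is for protecting the cells against peroxide damage rather than for killing them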
[8] = biological target: T1, High affinity choline transporter 1 (Homo sapiens, UniProt Q9GZV3); assay: CHT inhibitors, dose response, cell-based, 5-point CRC, membrane potential dye (AID 504840); type: functional
T1 sequence (Q9GZV3 whole entry): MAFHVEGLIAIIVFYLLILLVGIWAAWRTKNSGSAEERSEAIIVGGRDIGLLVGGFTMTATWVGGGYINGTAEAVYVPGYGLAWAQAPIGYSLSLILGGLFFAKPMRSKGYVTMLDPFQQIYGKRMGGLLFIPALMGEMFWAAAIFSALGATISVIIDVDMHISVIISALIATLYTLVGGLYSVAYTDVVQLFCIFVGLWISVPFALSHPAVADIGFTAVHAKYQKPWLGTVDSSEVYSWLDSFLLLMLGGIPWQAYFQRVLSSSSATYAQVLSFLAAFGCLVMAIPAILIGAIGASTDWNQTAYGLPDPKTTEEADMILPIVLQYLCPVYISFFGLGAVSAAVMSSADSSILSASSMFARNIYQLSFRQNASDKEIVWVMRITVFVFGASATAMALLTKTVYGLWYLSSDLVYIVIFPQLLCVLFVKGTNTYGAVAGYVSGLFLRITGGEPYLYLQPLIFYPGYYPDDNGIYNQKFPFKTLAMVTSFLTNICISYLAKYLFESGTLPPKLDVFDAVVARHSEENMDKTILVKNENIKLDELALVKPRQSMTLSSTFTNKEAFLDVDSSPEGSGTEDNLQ

[9] = biological target: T1, High affinity choline transporter 1; assay: CHT inhibitors, dose response, cell-based, 10-point CRC, membrane potential dye (AID 588401); type: functional;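 further: membrane potential dye fluorescence of choline-evoked depolarization via CHT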
Melanocortin receptor 4 = Melanocortin receptor 4 (Homo sapiens, UniProt P32245); type: functional, cell-based;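 further: Cell-based assay with luminescence read-out, confirmatory dose-response testing for agonist activity of biased ligands at MC4R; human U2OS cells with tagged receptor and beta-arrestin; potency of agonists that increase receptor coupling to beta-arrestin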
[10] = biological target: T2, Polyadenylate-binding protein 1 (Homo sapiens, UniProt P11940); assay: PABP1 MLLE–PAM2 binding inhibitor potency, dose response, biochemical, fluorescence polarization, FITC-PAM2 peptide (AID 602259); type: functional; conditions: read-out: IC50_Mean
[11] = biological target: T2, Polyadenylate-binding protein 1; assay: PABP1 MLLE–PAM2 interaction inhibitors, dose response, miRNA deadenylation inhibitor project, biochemical, fluorescence polarization, Cy5-PAM2 peptide, secondary (AID 602260); type: functional; conditions: read-out: IC50_Mean
[12] = C. albicans growth with fluconazole, confirmation, fluorescence, retest (AID 2467); type: functional, cell-based
[13] = NIH-3T3 fibroblast cytotoxicity, dose response, cytotoxicity control, cell-based, fluorescence, Alamar Blue, secondary assay (AID 2327); type: functional;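 further: NIH-3T3 mouse fibroblasts cultured with fluconazole at 8 µg/mL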
[14] = biological target: T3, Short transient receptor potential channel 4 (Mus musculus, UniProt Q9QUQ5); assay: mouse TRPC4 channel inhibitors, dose response, cell-based, HEK293 TRPC4/mu-opioid, Fluo-4 calcium (AID 434942); type: functional;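 further: potency of inhibitors blocking the TRPC4 calcium response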
T3 sequence (Q9QUQ5 whole entry): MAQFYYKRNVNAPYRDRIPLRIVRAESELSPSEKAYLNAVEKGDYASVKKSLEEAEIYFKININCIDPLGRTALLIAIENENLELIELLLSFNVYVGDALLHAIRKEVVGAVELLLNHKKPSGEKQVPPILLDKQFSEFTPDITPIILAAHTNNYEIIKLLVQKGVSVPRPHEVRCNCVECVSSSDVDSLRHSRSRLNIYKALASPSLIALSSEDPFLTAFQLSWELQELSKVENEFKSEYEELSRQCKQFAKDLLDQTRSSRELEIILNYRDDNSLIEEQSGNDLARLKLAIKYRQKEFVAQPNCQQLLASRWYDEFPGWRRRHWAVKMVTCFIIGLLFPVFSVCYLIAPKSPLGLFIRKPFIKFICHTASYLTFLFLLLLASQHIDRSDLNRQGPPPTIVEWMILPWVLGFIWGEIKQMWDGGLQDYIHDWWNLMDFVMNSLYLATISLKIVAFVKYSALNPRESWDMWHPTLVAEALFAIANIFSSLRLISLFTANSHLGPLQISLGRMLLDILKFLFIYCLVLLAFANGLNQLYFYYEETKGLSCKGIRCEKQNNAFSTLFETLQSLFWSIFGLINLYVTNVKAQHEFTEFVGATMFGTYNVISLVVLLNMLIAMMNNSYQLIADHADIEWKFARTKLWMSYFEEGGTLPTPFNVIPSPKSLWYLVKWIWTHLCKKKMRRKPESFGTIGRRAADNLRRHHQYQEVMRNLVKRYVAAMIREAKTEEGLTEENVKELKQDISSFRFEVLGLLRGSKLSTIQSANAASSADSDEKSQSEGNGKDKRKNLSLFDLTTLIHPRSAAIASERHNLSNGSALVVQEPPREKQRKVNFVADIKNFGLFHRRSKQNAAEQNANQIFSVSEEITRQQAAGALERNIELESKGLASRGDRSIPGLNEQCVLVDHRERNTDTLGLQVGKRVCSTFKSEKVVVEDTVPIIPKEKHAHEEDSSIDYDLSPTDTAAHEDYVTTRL

[15] = biological target: Dual specificity tyrosine-phosphorylation-regulated kinase 1A (Rattus norvegicus, UniProt Q63470); type: biochemical, Homo sapiens
Aminopeptidase N = biological target: T4, Aminopeptidase N (Plasmodium falciparum FcB1/Columbia, UniProt O96935); assay: P. falciparum M1AAP inhibitors, biochemical, fluorogenic H-Leu-NHMec substrate, 1536-well (AID 1445); parameters: species or system Plasmodium falciparum 3D7, 3D7
T4 sequence (O96935 whole entry): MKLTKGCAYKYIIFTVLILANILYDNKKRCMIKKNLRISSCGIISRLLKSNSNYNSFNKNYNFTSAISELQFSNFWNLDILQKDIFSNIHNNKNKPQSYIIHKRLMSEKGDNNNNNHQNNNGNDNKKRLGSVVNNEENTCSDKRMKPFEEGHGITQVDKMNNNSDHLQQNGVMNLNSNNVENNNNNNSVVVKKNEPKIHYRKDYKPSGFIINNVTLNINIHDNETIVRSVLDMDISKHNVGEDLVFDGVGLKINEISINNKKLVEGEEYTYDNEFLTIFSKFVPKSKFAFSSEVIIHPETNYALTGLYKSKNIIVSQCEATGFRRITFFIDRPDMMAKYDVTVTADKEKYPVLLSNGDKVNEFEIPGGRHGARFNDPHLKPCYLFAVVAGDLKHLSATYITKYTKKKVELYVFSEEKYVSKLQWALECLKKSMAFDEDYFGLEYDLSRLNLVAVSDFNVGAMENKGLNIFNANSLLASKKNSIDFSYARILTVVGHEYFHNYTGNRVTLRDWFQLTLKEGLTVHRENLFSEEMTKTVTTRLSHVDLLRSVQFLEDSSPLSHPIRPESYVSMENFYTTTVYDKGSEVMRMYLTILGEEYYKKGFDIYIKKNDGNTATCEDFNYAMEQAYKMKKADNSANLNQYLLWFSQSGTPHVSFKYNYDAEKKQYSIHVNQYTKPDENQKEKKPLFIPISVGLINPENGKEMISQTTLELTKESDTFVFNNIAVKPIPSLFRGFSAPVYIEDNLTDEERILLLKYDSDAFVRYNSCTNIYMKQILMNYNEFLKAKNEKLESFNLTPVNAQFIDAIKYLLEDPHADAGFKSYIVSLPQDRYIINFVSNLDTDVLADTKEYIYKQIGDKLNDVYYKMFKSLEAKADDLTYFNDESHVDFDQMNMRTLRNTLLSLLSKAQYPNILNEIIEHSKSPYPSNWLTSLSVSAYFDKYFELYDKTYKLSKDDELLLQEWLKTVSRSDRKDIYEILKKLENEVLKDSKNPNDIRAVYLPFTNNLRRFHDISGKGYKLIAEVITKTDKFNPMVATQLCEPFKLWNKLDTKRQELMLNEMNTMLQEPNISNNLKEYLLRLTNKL

T2 sequence (P11940 whole entry): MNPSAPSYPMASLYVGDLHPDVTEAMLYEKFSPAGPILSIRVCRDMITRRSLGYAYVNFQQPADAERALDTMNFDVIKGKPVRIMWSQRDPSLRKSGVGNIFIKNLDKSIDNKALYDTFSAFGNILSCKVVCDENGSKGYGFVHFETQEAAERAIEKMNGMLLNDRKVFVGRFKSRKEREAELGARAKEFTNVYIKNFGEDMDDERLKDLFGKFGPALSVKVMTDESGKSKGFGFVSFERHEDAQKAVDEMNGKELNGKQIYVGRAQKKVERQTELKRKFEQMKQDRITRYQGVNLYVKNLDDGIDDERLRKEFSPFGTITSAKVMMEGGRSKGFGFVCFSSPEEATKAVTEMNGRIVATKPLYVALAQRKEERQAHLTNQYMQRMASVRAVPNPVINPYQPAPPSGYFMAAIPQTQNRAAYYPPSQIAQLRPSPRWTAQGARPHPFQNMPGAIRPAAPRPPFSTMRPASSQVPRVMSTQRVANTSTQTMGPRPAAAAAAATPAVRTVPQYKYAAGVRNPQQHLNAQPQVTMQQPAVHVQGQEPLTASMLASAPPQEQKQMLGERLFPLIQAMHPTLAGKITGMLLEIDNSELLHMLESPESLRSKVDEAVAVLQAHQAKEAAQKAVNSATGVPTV
Chain of Melanocortin receptor 4 (P32245 whole entry): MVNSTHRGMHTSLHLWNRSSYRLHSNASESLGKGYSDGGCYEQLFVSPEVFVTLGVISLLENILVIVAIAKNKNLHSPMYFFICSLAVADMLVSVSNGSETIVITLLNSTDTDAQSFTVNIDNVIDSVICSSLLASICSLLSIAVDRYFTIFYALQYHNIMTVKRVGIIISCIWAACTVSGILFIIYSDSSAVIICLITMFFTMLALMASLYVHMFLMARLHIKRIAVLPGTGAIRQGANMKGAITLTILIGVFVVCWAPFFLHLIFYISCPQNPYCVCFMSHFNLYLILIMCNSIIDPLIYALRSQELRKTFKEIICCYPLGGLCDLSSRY
Chain of Steroidogenic factor 1 (Q13285 whole entry): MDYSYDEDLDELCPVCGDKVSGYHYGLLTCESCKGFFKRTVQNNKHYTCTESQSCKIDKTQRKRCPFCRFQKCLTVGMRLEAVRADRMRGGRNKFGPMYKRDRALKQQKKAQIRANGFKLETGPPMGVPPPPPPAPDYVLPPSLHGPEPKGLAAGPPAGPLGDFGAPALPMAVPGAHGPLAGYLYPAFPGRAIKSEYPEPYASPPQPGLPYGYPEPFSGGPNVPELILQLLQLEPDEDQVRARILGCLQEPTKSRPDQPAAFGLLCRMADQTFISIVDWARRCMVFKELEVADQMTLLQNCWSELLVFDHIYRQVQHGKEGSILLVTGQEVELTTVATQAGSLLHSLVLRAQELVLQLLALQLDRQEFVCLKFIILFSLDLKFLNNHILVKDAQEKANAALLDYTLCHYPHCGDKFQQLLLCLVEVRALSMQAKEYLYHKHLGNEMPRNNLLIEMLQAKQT
Chain of Protein Wnt-3a (P27467 whole entry): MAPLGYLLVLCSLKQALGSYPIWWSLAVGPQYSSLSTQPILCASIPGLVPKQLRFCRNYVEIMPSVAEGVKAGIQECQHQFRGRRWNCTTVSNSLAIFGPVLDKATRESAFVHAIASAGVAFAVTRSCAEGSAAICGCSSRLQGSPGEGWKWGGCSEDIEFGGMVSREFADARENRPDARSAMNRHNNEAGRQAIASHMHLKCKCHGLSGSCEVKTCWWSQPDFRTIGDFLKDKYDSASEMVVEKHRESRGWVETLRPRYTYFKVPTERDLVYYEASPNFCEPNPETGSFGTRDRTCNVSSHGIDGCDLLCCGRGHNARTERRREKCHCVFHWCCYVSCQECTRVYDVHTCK
Chain of Nuclear receptor subfamily 5 group A member 2 (O00482 whole entry): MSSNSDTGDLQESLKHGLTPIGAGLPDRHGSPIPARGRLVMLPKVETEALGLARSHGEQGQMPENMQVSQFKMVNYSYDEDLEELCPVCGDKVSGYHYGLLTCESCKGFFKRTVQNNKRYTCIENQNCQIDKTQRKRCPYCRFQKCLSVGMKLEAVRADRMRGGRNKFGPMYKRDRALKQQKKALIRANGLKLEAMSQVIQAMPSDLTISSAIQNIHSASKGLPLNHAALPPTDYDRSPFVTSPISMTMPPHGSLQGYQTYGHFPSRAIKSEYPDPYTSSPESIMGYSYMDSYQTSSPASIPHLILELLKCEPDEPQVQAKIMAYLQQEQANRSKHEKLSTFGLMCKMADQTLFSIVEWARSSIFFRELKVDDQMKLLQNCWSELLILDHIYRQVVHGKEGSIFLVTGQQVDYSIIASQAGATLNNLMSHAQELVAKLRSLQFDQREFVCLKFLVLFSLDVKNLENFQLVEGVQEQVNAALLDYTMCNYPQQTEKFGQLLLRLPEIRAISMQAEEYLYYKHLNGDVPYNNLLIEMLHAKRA
Chain of Nonstructural protein 1 (Q194T2 whole entry): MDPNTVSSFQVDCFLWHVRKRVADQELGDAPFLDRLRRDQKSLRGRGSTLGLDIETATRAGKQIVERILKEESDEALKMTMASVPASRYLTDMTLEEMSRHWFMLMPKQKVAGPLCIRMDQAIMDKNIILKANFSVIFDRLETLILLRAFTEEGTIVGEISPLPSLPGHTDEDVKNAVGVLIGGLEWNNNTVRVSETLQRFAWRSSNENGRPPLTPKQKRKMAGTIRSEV

COc1cc(C(=O)Nc2ccccc2C2COC(=O)C2=N)cc(OC)c1OC (stereo not drawn)
IC50 (Steroidogenic factor 1): 4.53 µM (active)
IC50 [1]: 35.9 µM (inactive)
IC50 [2]: 8.25 µM (active)

CC(=O)c1c(C)[nH]c(C(=O)OCC(=O)Nc2ccc(C)cc2[N+](=O)[O-])c1C
IC50 (Protein Wnt-3a): 0.245 µM (active)
IC50 [3]: > 80 µM (inactive)
AC50 (INS1): 1.12 µM (active)

O=C(CCS(=O)(=O)c1ccccc1)Nc1nc(-c2ccccn2)cs1
AC50 [4]: 118 µM (active)
CC50 [5]: > 20 µM (active)
CC50 [6]: 22.5 µM (active)
CC50 [7]: 10.6 µM (active)
IC50 (cells): 4.53 µM (active)
IC50 (Nonstructural protein 1): 15.7 µM (active)
IC50 (H9c2): 35.8 µM (inactive)

Cc1ccc[n+](CC(=O)c2ccc(Cl)cc2)c1
IC50 [8]: 1.82 µM (active)
IC50 [9]: 0.946 µM (active)

CC(=O)Nc1cc(-c2ccccc2N(C)C)cn2c(-c3ccc(F)c(Cl)c3)cnc12
EC50 (Melanocortin receptor 4): > 89.2 µM (inactive)
IC50 [10]: > 66 µM (inactive)
IC50 [11]: > 66 µM (inactive)

COc1ccc(-c2cc(NC=O)c3ncc(-c4ccccc4)n3c2)cc1OC
EC50 (Melanocortin receptor 4): > 89.2 µM (inactive)
IC50 (H9c2): > 79 µM (inactive)

N#C/C(=N\Nc1cccc([N+](=O)[O-])c1)C(=O)c1ccc(Br)cc1
IC50 [8]: 9.02 µM (active)
EC50 [12]: 4.48 µM (active)
EC50 [13]: 56.9 µM (active)
EC50 [14]: 3.35 µM (active)
AC50 [15]: 2.91 µM (active)
AC50 (INS1): 6.82 µM (active)
IC50 (Aminopeptidase N): 40.5 µM (active)
IC50 [9]: 3.36 µM (active)
